Laboratory results taken from ChEMBL document CHEMBL1134660, “Design, synthesis, and evaluation of a long-acting, potent analogue of gonadotropin-releasing hormone” (J Med Chem, 2001).

Biological target: T1, Gonadotropin-releasing hormone receptor (Rattus norvegicus, UniProt P30969)
T1 sequence (P30969 whole entry): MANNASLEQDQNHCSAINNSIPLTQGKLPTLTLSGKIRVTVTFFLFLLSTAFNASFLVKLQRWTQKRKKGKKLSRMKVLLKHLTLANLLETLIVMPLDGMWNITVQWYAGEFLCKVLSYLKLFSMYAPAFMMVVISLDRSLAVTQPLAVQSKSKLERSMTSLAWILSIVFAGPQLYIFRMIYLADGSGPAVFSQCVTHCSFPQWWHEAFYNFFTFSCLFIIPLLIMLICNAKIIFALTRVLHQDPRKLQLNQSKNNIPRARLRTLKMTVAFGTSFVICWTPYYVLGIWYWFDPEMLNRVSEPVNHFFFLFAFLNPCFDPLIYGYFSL
Assay: Evaluated for gonadotropin-releasing hormone receptor binding by displacing the 50% of the bound tracer [125I][D-Lys6]-GnRH radioligand in rat pituitary receptors

How did the IC50 turn out when `CC(C)C[C@H](NC(=O)[C@@H](CCCCNC(=O)CCCC(=O)OCc1ccc2c(c1)C(=O)c1ccccc1C2=O)NC(=O)[C@H](Cc1ccc(O)cc1)NC(=O)[C@H](CO)NC(=O)[C@H](Cc1c[nH]c2ccccc12)NC(=O)[C@H](Cc1c[nH]cn1)NC(=O)[C@@H]1CCC(=O)N1)C(=O)N[C@@H](CCCNC(=N)N)C(=O)N1CCC[C@H]1C(=O)NCC(N)=O` was run?
Its IC50 is 2 pM.
